Experimental data reported in paper PMC9032790.
Converted amounts (≈) assume the structure as drawn. Marks after values point to notes of the source that are not given here.

How the values were obtained:
5C3-McAb = assay: heterologous ic-ELISA with 5C3-McAb; details: for cross-reactivity rate: IC50 of clothianidin / IC50 of analogue × 100%
[1] = test system: PcAb [22] (anti-clothianidin antibody); set-up: method as in PMID 23527939; details: ic-ELISA, cited from earlier work; for cross-reactivity rate: IC50 of clothianidin / IC50 of analogue × 100%
1F7-McAb = assay: heterologous ic-ELISA with 1F7-McAb; details: for cross-reactivity rate: IC50 of clothianidin / IC50 of analogue × 100%
1F7-RAb [2] = assay: IMI-H-OVA-based heterologous ic-ELISA with 1F7-RAb; format: binding, mouse; details: for cross-reactivity rate: ic-ELISA, IC50 of clothianidin / IC50 of analogue × 100%
5C3-RAb [3] = assay: THC-H-OVA-based heterologous ic-ELISA with 5C3-RAb; format: binding, mouse; details: for cross-reactivity rate: ic-ELISA, IC50 of clothianidin / IC50 of analogue × 100%
[4] = test system: McAb [35] (anti-clothianidin antibody); set-up: method as in PMID 25173856; details: ic-ELISA, cited from earlier work; for cross-reactivity rate: IC50 of clothianidin / IC50 of analogue × 100%
[5] = test system: McAb [23] (anti-clothianidin antibody); set-up: method as in PMID 23202236; details: ic-ELISA, cited from earlier work; for cross-reactivity rate: IC50 of clothianidin / IC50 of analogue × 100%
1F7-RAb [6] = assay: 1F7-RAb-based GICA, selectivity and sensitivity in standard solution; format: binding, mouse; details: analyte at 1000 μg/L, judged with the naked eye
[7] = test system: six potential antibodies from hybridoma culture supernatants; assay: homologous ic-ELISA hybridoma screening (CLO-H-OVA); details: free clothianidin 50 μg/L; CLO-H-OVA 5 μg/mL
1F7-RAb [8] = assay: non-competitive SPR with immobilized 1F7-RAb; format: binding, mouse
5C3-RAb [9] = assay: non-competitive SPR with immobilized 5C3-RAb; format: binding, mouse
[10] = 8 neonicotinoids at the same concentration of 50 nM
[11] = SPR, 1:1 binding kinetic model, read-out: KD (dissociation equilibrium constant)

Structure (SMILES) | cross-reactivity rate (5C3-McAb) | cross-reactivity rate [1] | cross-reactivity rate (1F7-McAb) | cross-reactivity rate (1F7-RAb [2]) | cross-reactivity rate (5C3-RAb [3]) | cross-reactivity rate [4] | cross-reactivity rate [5] | further results
O=[N+]([O-])/N=C1\NCCN1Cc1ccc(Cl)nc1 [C00003] | <0.1% | 0.8% | <0.1% | <0.1% | <0.1% | <0.03% | <0.1% | –
C/C(=N\C#N)N(C)Cc1ccc(Cl)nc1 [C00004] | <0.1% | <0.05% | <0.1% | <0.1% | <0.1% | <0.03% | <0.1% | –
N#C/N=C1\SCCN1Cc1ccc(Cl)nc1 [C00005] | <0.1% | <0.05% | <0.1% | <0.1% | <0.1% | <0.03% | <0.1% | –
CN1COCN(Cc2cnc(Cl)s2)/C1=N/[N+](=O)[O-] [C00006] | <0.1% | <0.05% | <0.1% | <0.1% | <0.1% | <0.03% | <0.1% | –
CCN(Cc1ccc(Cl)nc1)/C(=C\[N+](=O)[O-])NC [C00007] | <0.1% | <0.05% | <0.1% | <0.1% | <0.1% | <0.03% | <0.1% | –
O=[N+]([O-])/N=C1/NCCN1Cc1cnc(Cl)s1 [C00008] | <0.1% | <0.05% | <0.1% | <0.1% | <0.1% | <0.03% | <0.1% | –
CN/C(=N\[N+](=O)[O-])NCc1cnc(Cl)s1 [clothianidin] | 100% | 100% | 100% | 100% | 100% | 100% | 100% | GICA cross-reaction test, effect on T line (1F7-RAb [6]): complete disappearance of the T line; IC50 value (5C3-McAb): 13.16 µg/L (≈ 0.0527 µM); IC50 value [1]: 46 µg/L (≈ 0.184 µM); IC50 value (1F7-McAb): 5.38 µg/L (≈ 0.0215 µM); IC50 value (1F7-RAb [2]; heterologous ic-ELISA, 1.25 μg/mL of IMI-H-OVA): 4.62 µg/L (≈ 0.0185 µM); IC50 value (5C3-RAb [3]; heterologous ic-ELISA, 5 μg/mL of THC-H-OVA, listed as C00001): 5.22 µg/L (≈ 0.0209 µM); inhibition of binding of CLO-H-OVA to antibodies [7]: less than 11%; SPR binding selectivity signal (1F7-RAb [8]; [10]): high signal; Kd (1F7-RAb [8]; [11]): 3.24 nM; SPR binding selectivity signal (5C3-RAb [9]; [10]): high signal; Kd (5C3-RAb [9]; [11]): 7.96 nM; IC50 value [4]: 25.6 µg/L (≈ 0.103 µM); IC50 value [5]: 4.4 µg/L (≈ 0.0176 µM)
CN/C(=N/CC1CCOC1)N[N+](=O)[O-] (stereo not shown) [dinotefuran] | 42.4% | 11.8 ^c % | <0.1% | no obvious cross-reaction | 56% | 47.8% | 64% | cross-reactivity rate (1F7-RAb [2]; listed as C00002): <0.1%
